Biological target: phosphodiesterase IX (Homo sapiens (Human), UniProt O76083)
Test: Inhibition activity to the phosphodiesterase IX
Format: biochemical
Details: concentration of the inhibitor when the inhibition rate reaches 50%
Procedure: Inhibition activities of all the N-substituted pyrazolo [3,4-d] pyrimidine ketone compounds according to the present invention to the phosphodiesterase IX are tested.

Chain of phosphodiesterase IX (O76083 whole entry): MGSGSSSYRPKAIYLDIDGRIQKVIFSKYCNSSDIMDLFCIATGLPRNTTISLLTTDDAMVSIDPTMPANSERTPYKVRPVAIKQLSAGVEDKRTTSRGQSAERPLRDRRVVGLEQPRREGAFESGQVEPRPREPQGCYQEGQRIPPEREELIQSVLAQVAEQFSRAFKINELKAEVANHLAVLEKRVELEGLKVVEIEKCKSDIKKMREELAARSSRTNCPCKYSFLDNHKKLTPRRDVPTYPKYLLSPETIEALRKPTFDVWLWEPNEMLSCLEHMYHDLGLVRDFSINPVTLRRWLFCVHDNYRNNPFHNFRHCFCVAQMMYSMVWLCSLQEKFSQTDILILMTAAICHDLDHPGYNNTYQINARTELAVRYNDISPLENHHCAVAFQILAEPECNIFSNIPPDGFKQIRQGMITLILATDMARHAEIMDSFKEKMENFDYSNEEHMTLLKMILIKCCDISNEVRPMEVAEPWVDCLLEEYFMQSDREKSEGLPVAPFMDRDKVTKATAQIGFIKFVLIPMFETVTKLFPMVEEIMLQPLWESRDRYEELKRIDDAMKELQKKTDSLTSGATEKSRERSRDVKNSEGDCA

**Q.** How did the IC50 turn out when `COc1ccc(NC(=O)C(C)Nc2nc3c(cnn3-c3ccccc3Cl)c(=O)[nH]2)cc1` (stereo not shown) [WYQ-94-D] was run?
**A.** The IC50 was 6 nM.

— US9617269B2
